Source: patent US20250228865A1, “COMPOUNDS FOR ENHANCING READ THROUGH OF GENES CONTAINING PREMATURE TERMINATION CODONS AND METHODS FOR MAKING AND USING THE SAME” (Sanofi US Services Inc., priority 2022, published 2025)

Legend:
[1] = tested on: CFTR G542X; assay: Functional CFTR channel activity, TECC-24 electrophysiology, 16HBE cells (CFTR G542X readthrough); assay type: cell-based, human
Protocol: (§1) 16HBE human bronchial epithelial cells were seeded onto Transwell 24-well filter inserts coated with human collagen type IV. Cells were seeded 7 days prior to functional testing at a density of 1.7×10^5 cells onto the “apical” chamber filter of the Transwell insert. Cells were grown as submerged cultures (200 μL apical/700 μL basolateral) in Minimal Essential Medium (MEM) containing 10% qualified Fetal Bovine Serum and 1% Penicillin/Streptomycin and incubated at 37° C. and 5% CO2. Growth media on cells was replenished with fresh media every 1-3 days prior to test agent treatment day. After 7 days in culture, the CFTR-mediated chloride (Cl^−) equivalent current (Ieq) of the 16HBE cells was recorded, which may typically form electrically tight epithelia with a transepithelial resistance (Rt) of 2000-6000 Ω·cm2 as described below. Forty-eight hours prior to electrophysiological measurements, fresh growth media containing the test agents was applied to both chambers separating filter bound epithelial monolayer.
(§2) On the day of electrophysiology studies, electrodes of a “Multi-(24-channel) transepithelial current clamp amplifier” (MTECC-24 (TECC-24 for short), EP Devices, Belgium) were soaked in an assay buffer (see below for composition) for at least 2 hours using 24-well Transwell plates without inserts. Cell culture media was replaced in the Transwell assay plates with assay buffer (see below) and the plates were mounted onto a custom-built automated robotic assay platform (Yamaha RCX240S controller) with heated plate holders set at 37° C. for 60 min. After equilibration, transepithelial potential difference (PD) and resistance (Rt) was monitoredat ˜5 min intervals using the TECC-24 transepithelial current clamp. Electrode potential differences were monitored for each pair of Ag/AgCl voltage electrodes by taking voltage measurements from a control (“blank”) plate with matching buffer solutions and 16HBE cells that were not treated with any test agent. PD values for each electrode pair were subtracted from the blank plate from that of the test plates at each time point. Ieq was calculated from the corrected PD values and Rt using Ohm's law. Ieq values were slope corrected to account for measurement drift over time using the equation: Slope corrected value=calculated Ieq−((time x slope)+y-intercept) with the slope and y-intercept calculated from the data points captured during the initial baseline period and following addition of the CFTR inhibitor.
(§3) The equivalent current (Ieq) traces associated with CFTR channel activation were plotted as baseline subtracted mean±standard deviation from 3-4 separate wells on the 24-well Transwell (n=3-4). There are 4 recording periods, with the first set of data points recorded baseline Ieq currents prior to sequential activation of available CFTR channels with forskolin (10 μM) and then in combination with potentiator VX-770/ivacaftor (1 μM). Recorded the last set of data points in the presence of CFTR inhibitor CFTRinh-172 (20 μM) to confirm that currents are mediated via activation of CFTR channels. The test agents and control/reference compounds were pre-diluted to 10-fold concentrations in assay buffer and added manually using a multi-channel pipette to both the basolateral and apical side of the membrane (test plates only). Employed CFTR-mediated changes in Ieq, (i.e. forskolin/VX-770 activated currents) to measure functional CFTR surface expression or treatment-related functional rescue of mutant CFTR.
(§4) The magnitude of test agent mediated enhancement of functional CFTR currents was calculated by comparing forskolin/VX-770 stimulated Ieq relative to baseline/CFTRinh-172 Ieq following 48 hour pretreatment with test agent(s) and normalizing to the forskolin/VX-770 stimulated Ieq determined following 48 hour pretreatment with a maximally effective concentration a reference control aminoglycoside agent (typically 110 μM G418). […]

[2] = tested on: CFTR R1162X; assay: Functional CFTR channel activity, TECC-24 electrophysiology, 16HBE cells (CFTR R1162X readthrough); assay type: cell-based, human
Protocol: as §1, §2, §3, §4

[3] = RTM 0.5 uM, no eRF3 modulator, G418 10 uM
[4] = RTM conc. —, eRF3 modulator (CC-90009) 1 uM, ELX-02 100 uM
[5] = RTM 1 uM, no eRF3 modulator, ELX-02 100 uM
[6] = RTM 3 uM, eRF3 modulator (CC-90009) 1 uM, ELX-02 100 uM
[7] = RTM 1 uM, no eRF3 modulator, G418 10 uM
[8] = RTM 1 uM, eRF3 modulator (CC-90009) 1 uM, ELX-02 100 uM
[9] = RTM 3 uM, no eRF3 modulator, ELX-02 100 uM
[10] = RTM 0.5 uM, eRF3 modulator (CC-90009) 1 uM, Paramomycin 2000 uM
[11] = RTM 1 uM, eRF3 modulator (CC-90009) 1 uM, G418 10 uM
[12] = RTM 5 uM, eRF3 modulator (CC-90009) 10 uM, G418 10 uM
[13] = RTM 0.5 uM, no eRF3 modulator, ELX-02 100 uM
[14] = RTM 5 uM, no eRF3 modulator, G418 10 uM
[15] = no RTM, eRF3 modulator (CC-90009) 1 uM, Paramomycin 2000 uM

OCc1cn(-c2ncc(OCc3c(Cl)cccc3Cl)cn2)cn1 [drawing 824]
Currents (% of 110 μM G418 (Max effect)) ([1]; RTM 0.5 uM, eRF3 modulator (CC-90009) 1 uM, ELX-02 100 uM): 421 % of 110 μM G418 (Max effect)

OCc1cn(-c2ncc(OCc3c(Cl)cccc3Cl)cn2)cn1 [drawing 821]
Currents (% of 110 μM G418 (Max effect)) [1, 3]: 78 % of 110 μM G418 (Max effect)

OCc1cn(-c2ncc(OCc3c(Cl)cccc3Cl)cn2)cn1 [drawing 822]
Currents (% of 110 μM G418 (Max effect)) ([1]; RTM 0.5 uM, eRF3 modulator (CC-90009) 1 uM, G418 10 uM): 429 % of 110 μM G418 (Max effect)

OCc1ncn(-c2ncc(OCc3c(Cl)cccc3C(F)(F)F)cn2)n1 [drawing 835]
Currents (% of 110 μM G418 (Max effect)) [1, 4]: 60 % of 110 μM G418 (Max effect)

OCc1ccn(-c2ncc(OCc3c(Cl)cccc3Cl)cn2)n1 [drawing 825]
Currents (% of 110 μM G418 (Max effect)) [1, 5]: 94 % of 110 μM G418 (Max effect)

OCc1ncn(-c2ncc(OCc3c(Cl)cccc3C(F)(F)F)cn2)n1 [drawing 836]
Currents (% of 110 μM G418 (Max effect)) [1, 6]: 263 % of 110 μM G418 (Max effect)

OCc1cn(-c2ncc(OCc3c(Cl)cccc3Cl)cn2)cn1 [drawing 837]
Currents (% of 110 μM G418 (Max effect)) ([1]; RTM 0.5 uM, no eRF3 modulator, Paramomycin 2000 uM): 5 % of 110 μM G418 (Max effect)

O=C1N[C@H](CO)CN1c1ccc(OCc2c(Cl)cccc2Cl)cn1 [drawing 832]
Currents (% of 110 μM G418 (Max effect)) [1, 4]: 83 % of 110 μM G418 (Max effect)

Cc1cccc(C(F)(F)F)c1COc1ccc(N2CC(CO)OC2=O)cc1 (stereo not shown) [drawing 839]
Currents (% of 110 μM G418 (Max effect)) [1, 7]: 76 % of 110 μM G418 (Max effect)

OCc1ccn(-c2ncc(OCc3c(Cl)cccc3Cl)cn2)n1 [drawing 827]
Currents (% of 110 μM G418 (Max effect)) [1, 8]: 278 % of 110 μM G418 (Max effect)

C[C@H](N)[C@H]1O[C@@H](OC2C(O)C(N)CC(N)C2OC2OC([C@@H](C)O)C(O)C(O)C2N)C(O)C1O (stereo partly shown) [ELX-02, reference compound]
Currents (% of 110 μM G418 (Max effect)) [1, 4]: 191 % of 110 μM G418 (Max effect) | Currents (% of 110 μM G418 (Max effect)) [2, 4]: 198 % of 110 μM G418 (Max effect)

Cc1cccc(C(F)(F)F)c1COc1ccc(-c2nc(CO)n[nH]2)cc1 [drawing 829]
Currents (% of 110 μM G418 (Max effect)) [1, 4]: 83 % of 110 μM G418 (Max effect)

OCc1ncn(-c2ncc(OCc3c(Cl)cccc3C(F)(F)F)cn2)n1 [drawing 834]
Currents (% of 110 μM G418 (Max effect)) [1, 9]: 111 % of 110 μM G418 (Max effect)

OCc1cn(-c2ncc(OCc3c(Cl)cccc3Cl)cn2)cn1 [drawing 838]
Currents (% of 110 μM G418 (Max effect)) [1, 10]: 140 % of 110 μM G418 (Max effect)

OCc1ncn(-c2ncc(OCc3c(Cl)cccc3C(F)(F)F)cn2)n1 [drawing 810]
Currents (% of 110 μM G418 (Max effect)) [2, 9]: 102 % of 110 μM G418 (Max effect)

OCc1ccn(-c2ncc(OCc3c(Cl)cccc3Cl)cn2)n1 [drawing 801]
Currents (% of 110 μM G418 (Max effect)) [2, 5]: 102 % of 110 μM G418 (Max effect)

OCc1cn(-c2ncc(OCc3c(Cl)cccc3Cl)cn2)cn1 [drawing 814]
Currents (% of 110 μM G418 (Max effect)) [2, 10]: 183 % of 110 μM G418 (Max effect)

Cc1cccc(C(F)(F)F)c1COc1ccc(N2CC(CO)OC2=O)cc1 (stereo not shown) [drawing 840]
Currents (% of 110 μM G418 (Max effect)) [1, 11]: 290 % of 110 μM G418 (Max effect)

Cc1cccc(C(F)(F)F)c1COc1ccc(N2CC(CO)OC2=O)cc1 (stereo not shown) [drawing 816]
Currents (% of 110 μM G418 (Max effect)) [2, 11]: 423 % of 110 μM G418 (Max effect)

O=C1O[C@@H](CO)CN1c1ccc(OCc2c(Cl)cccc2Cl)cc1 [drawing 820]
Currents (% of 110 μM G418 (Max effect)) [2, 12]: 320 % of 110 μM G418 (Max effect)

OCc1ncn(-c2ncc(OCc3c(Cl)cccc3C(F)(F)F)cn2)n1 [drawing 812]
Currents (% of 110 μM G418 (Max effect)) [2, 6]: 288 % of 110 μM G418 (Max effect)

O=C1N[C@H](CO)CN1c1ccc(OCc2c(Cl)cccc2Cl)cn1 [drawing 831]
Currents (% of 110 μM G418 (Max effect)) [1, 5]: 79 % of 110 μM G418 (Max effect)

OCc1cn(-c2ncc(OCc3c(Cl)cccc3Cl)cn2)cn1 [drawing 797]
Currents (% of 110 μM G418 (Max effect)) [2, 3]: 64 % of 110 μM G418 (Max effect)

O=C1O[C@H](CO)CN1c1ccc(OCc2c(Cl)cccc2Cl)cc1 [drawing 842]
Currents (% of 110 μM G418 (Max effect)) [1, 12]: 323 % of 110 μM G418 (Max effect)

OCc1cn(-c2ncc(OCc3c(Cl)cccc3Cl)cn2)cn1 [drawing 799]
Currents (% of 110 μM G418 (Max effect)) [2, 13]: 51 % of 110 μM G418 (Max effect)

O=C1O[C@H](CO)CN1c1ccc(OCc2c(Cl)cccc2Cl)cc1 [drawing 817]
Currents (% of 110 μM G418 (Max effect)) [2, 14]: 54 % of 110 μM G418 (Max effect)

Cc1cccc(C(F)(F)F)c1COc1ccc(-c2nc(CO)n[nH]2)cc1 [drawing 828]
Currents (% of 110 μM G418 (Max effect)) [1, 5]: 109 % of 110 μM G418 (Max effect)

NC[C@@H]1O[C@H](O[C@H]2[C@@H](O)[C@H](O[C@@H]3[C@@H](O)[C@H](N)C[C@H](N)[C@H]3O[C@H]3O[C@H](CO)[C@@H](O)[C@H](O)[C@H]3N)O[C@@H]2CO)[C@H](N)[C@@H](O)[C@@H]1O [Paramomycin, paramomycin, reference compound]
Currents (% of 110 μM G418 (Max effect)) [1, 15]: 65 % of 110 μM G418 (Max effect) | Currents (% of 110 μM G418 (Max effect)) [2, 15]: 55 % of 110 μM G418 (Max effect)

O=C1O[C@H](CO)CN1c1ccc(OCc2c(Cl)cccc2Cl)cc1 [drawing 841]
Currents (% of 110 μM G418 (Max effect)) [1, 14]: 54 % of 110 μM G418 (Max effect)

O=C1N[C@H](CO)CN1c1ccc(OCc2c(Cl)cccc2Cl)cn1 [drawing 808]
Currents (% of 110 μM G418 (Max effect)) [2, 4]: 63 % of 110 μM G418 (Max effect)

OCc1cn(-c2ncc(OCc3c(Cl)cccc3Cl)cn2)cn1 [drawing 823]
Currents (% of 110 μM G418 (Max effect)) [1, 13]: 50 % of 110 μM G418 (Max effect)

Cc1cccc(C(F)(F)F)c1COc1ccc(-c2nc(CO)n[nH]2)cc1 [drawing 806]
Currents (% of 110 μM G418 (Max effect)) [2, 8]: 269 % of 110 μM G418 (Max effect)

OCc1ccn(-c2ncc(OCc3c(Cl)cccc3Cl)cn2)n1 [drawing 802]
Currents (% of 110 μM G418 (Max effect)) [2, 4]: 63 % of 110 μM G418 (Max effect)

Cc1cccc(C(F)(F)F)c1COc1ccc(N2CC(CO)OC2=O)cc1 (stereo not shown) [drawing 815]
Currents (% of 110 μM G418 (Max effect)) [2, 7]: 76 % of 110 μM G418 (Max effect)

Cc1cccc(C(F)(F)F)c1COc1ccc(-c2nc(CO)n[nH]2)cc1 [drawing 830]
Currents (% of 110 μM G418 (Max effect)) [1, 8]: 263 % of 110 μM G418 (Max effect)

OCc1ccn(-c2ncc(OCc3c(Cl)cccc3Cl)cn2)n1 [drawing 826]
Currents (% of 110 μM G418 (Max effect)) [1, 4]: 83 % of 110 μM G418 (Max effect)

O=C1N[C@H](CO)CN1c1ccc(OCc2c(Cl)cccc2Cl)cn1 [drawing 833]
Currents (% of 110 μM G418 (Max effect)) [1, 8]: 293 % of 110 μM G418 (Max effect)

Cc1cccc(C(F)(F)F)c1COc1ccc(-c2nc(CO)n[nH]2)cc1 [drawing 805]
Currents (% of 110 μM G418 (Max effect)) [2, 4]: 63 % of 110 μM G418 (Max effect)
